Experiment in all cases: In vitro antibacterial activity (MIC)
Format in all cases: cell-based

The test system of one assay is Citrobacter freundii. The text has this: (§1) The compound of formula I, wherein R^1 is hydrogen, and salts thereof, are active as antibacterial agents of medium potency both in vitro and in vivo, and the compounds of formula I, wherein R^1 is an ester-forming residue readily hydrolyzable in vivo are active as antibacterial agents of medium potency in vivo.
The next assay deals with Enterobacter aerogenes. The settings on record: Klebsiella aerogenes.
Excerpt: as §1

The next assay concerns Enterobacter clocae.
Excerpt: as §1

For another assay, the system named is Escherichia coli.
Excerpt: as §1

A further assay deals with Hemophilus influenzae. Conditions: Haemophilus influenzae.
Excerpt: as §1

The subject of another assay is Klebsiella pneumoniae.
Excerpt: as §1

The test system of a further assay is Neisseria gonorrhoeae.
Excerpt: as §1

The test system of another assay is Pasteurella multocida.
Excerpt: as §1

The subject of the next assay is Proteus mirabilis.
Excerpt: as §1

The next assay deals with Proteus morgani.
Excerpt: as §1

The next assay relates to Providencia.
Excerpt: as §1

The subject of another assay is Pseudomonas aeruginosa.
Excerpt: as §1

The next assay has as its system Pseudomonas putida.
Excerpt: as §1

The next assay concerns Salmonella typhimurium. Conditions: Salmonella enterica.
Excerpt: as §1

A further assay deals with Serratia marcescens.
Excerpt: as §1

The test system of the next assay is Staphylococcus aureus.
Excerpt: as §1

The test system of the next assay is Staphylococcus epidermis.
Excerpt: as §1

A further assay has as its system Streptococcus faecalis. The settings on record: Enterococcus faecalis.
Excerpt: as §1

Another assay relates to Streptococcus pyogenes.
Excerpt: as §1

Molecules are shown by their SMILES. Values after ≈ are worked out from the molar mass of the structure shown.

As to `CC1(C)[C@H](C(=O)O)N2C(=O)C[C@H]2S1(=O)=O` [Penicillanic Acid 1,1-Dioxide], the MIC came to 50 µg/mL (≈ 214 µM) against Citrobacter freundii; 25 µg/mL (≈ 107 µM) in the assay on Enterobacter aerogenes; 100 µg/mL (≈ 429 µM) in the assay with Enterobacter clocae; 50 µg/mL (≈ 214 µM) against Escherichia coli; 50 µg/mL (≈ 214 µM) against Hemophilus influenzae; 50 µg/mL (≈ 214 µM) against Klebsiella pneumoniae. For the same molecule, the MIC against Neisseria gonorrhoeae came to 0.312 µg/mL (≈ 1.34 µM); against Pasteurella multocida, 50 µg/mL (≈ 214 µM); with Proteus mirabilis it was 100 µg/mL (≈ 429 µM); with Proteus morgani it was 100 µg/mL (≈ 429 µM); with Providencia, 100 µg/mL (≈ 429 µM); against Pseudomonas aeruginosa, 200 µg/mL (≈ 857 µM). Besides, the MIC was 200 µg/mL (≈ 857 µM) in the assay on Pseudomonas putida; 50 µg/mL (≈ 214 µM) against Salmonella typhimurium; 100 µg/mL (≈ 429 µM) against Serratia marcescens; 100 µg/mL (≈ 429 µM) against Staphylococcus aureus; 200 µg/mL (≈ 857 µM) in the assay on Staphylococcus epidermis; 200 µg/mL (≈ 857 µM) in the assay with Streptococcus faecalis. For the same molecule, the MIC against Streptococcus pyogenes turned out to be 100 µg/mL (≈ 429 µM).
